# “Also recorded” adds a separate entry of the source.
# Key:
# [1] = target: T1, hERG channel (Homo sapiens, UniProt Q12809); experiment: hERG binding assay, displacement of [3H]-astemizole; conditions: up to 10 μM
# T1 construct: host or cells: HEK293 cells expressing HERG (per the cited method)
# Procedure: Interaction with the hERG channel was assessed by displacement of the radioligand [^3H]-astemizole as described by Chiu et al.^3
# [2] = tested on: panel of 120 other receptors, channels and enzymes; experiment: CEREP selectivity screen, binding and enzyme assays; conditions: 10 μM
# Procedure: The CEREP selectivity screen was performed on the following targets:
# A1, A2A, A3, α1, α2, β1, β2, AT1, AT2, BZD central, BZD periph, BB, B2, CGRP, CB1, CCK1, CCK2, D1, D2S, D3, D4.4, D5, ETA, ETB, GABA, GAL1, GAL2, PDGF, CXCR2, CCR1, TNF- α, H1, H2, MC4, MT1, M1, M2, M3, M4, M5, NK1, NK2, NK3,Y1, Y2, NTS1(NT1), δ2, κ, µ, NOP(ORL1) , PAC1(PACAP), PPARγ, PCP, EP2, EP4, IP(PGI2,), P2X, P2Y,5-HT1A, 5-HT1B, 5-HT2A, 5-HT2B, 5-HT2C, 5-HT3, 5-HT5A, 5-HT6, 5-HT7, σ, sst, GR, ER, VPAC1(VIP1), V1a, Ca^2+ channel (L), KV channel, KV channel, SKCa channel, Na^+ channel, Cl^- channel, norepinephrine transporter. dopamine transporter, 5-HT transporter.
# sPLA2, COX1, COX2, 5-lipoxygenase, 12-lipoxygenase, inducible NOS, PDE2A1, PDE3A, PDE4D2, PDE5, PDE6, ACE, ACE-2, BACE-2, ECE-1, elastase, caspase-3, caspase-8, cathepsin D, cathepsin L, neutral endopeptidase, MMP-1, MMP-3, MMP-9, tryptase, TACE, phosphatase 1B, phosphatase CDC25A, Scr kinase, acetylcholinesterase, MAO-A, MAO-B, CENP-E, Eg5, HDAC3, HDAC4, HMG-CoA reductase, HDAC11, surtuin-1, surtuin-2.
# [3] = tested on: HEPG2 cells; experiment: High-content cell toxicity screen in HEPG2 cells; assay type: cell-based; conditions: concentrations up to 50 μM
# Procedure: Effect on the cell or mitochondrial viability markers in HepG2 cells were tested for compounds up to 50 μM. HepG2 cells were plated on 96-well tissue culture treated black walled clear bottomed polystyrene plates at 0:3 _ 104 cells in 100_L per well. After 24 hr the cells were dosed with the test compound at a range of concentrations (see Assay Summary for details). At the end of the incubation period, the cells were loaded with the relevant dye/antibody for each cell health marker. The plates were then scanned using an automated fluorescent cellular imager, ArrayScanr VTI (Thermo Scientific Cellomics).
# [4] = Plasma protein binding, equilibrium dialysis; assay type: in vitro ADME
# Procedure: Equilibrium dialysis is used to determine the extent of binding of a compound to plasma proteins. A semi-permeable membrane separates a protein-containing compartment from a protein-free compartment. The system is allowed to equilibrate at 37 °C. The test compound present in each compartment is quantified by LC-MS/MS. The extent of binding is reported as a fraction unbound (fu) value which is calculated as detailed below;
# fu = 1 – (PC - PF /PC). PC = Test compound concentration in protein-containing compartment. PF = Test compound concentration in the protein-free compartment.
# [5] = target: T2, mouse RAR alpha receptor (Mus musculus, UniProt P11416); conditions: relative to the amplitude of the normalizing ATRA output
# T2 sequence (P11416 183-417 limits assumed): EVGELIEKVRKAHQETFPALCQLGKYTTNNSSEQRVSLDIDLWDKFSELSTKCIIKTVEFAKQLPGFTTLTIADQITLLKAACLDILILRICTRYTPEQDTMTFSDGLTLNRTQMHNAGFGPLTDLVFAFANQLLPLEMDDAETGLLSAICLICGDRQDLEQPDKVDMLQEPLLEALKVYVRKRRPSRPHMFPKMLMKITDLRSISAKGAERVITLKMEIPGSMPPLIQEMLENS
# [6] = tested on: COS-7 cells; experiment: Cytotoxicity assay (MTT) in COS-7 cells; assay type: cell-based; conditions: 50-fold multiple of EC50
# Procedure: Cytotoxicity Assay: COS-7 cells were plated out on 96 well plates at a density of 8000 cells per well. […] After two days an MTT assay (Promega) was carried out according to the manufacturer’s instructions
# [7] = target: T3, Cyp 450 2C9 (Homo sapiens, UniProt P11712); experiment: Cytochrome P450 inhibition in human liver microsomes; assay type: in vitro ADME; conditions: human liver microsomes
# T3 construct: tissue Cyprotex (CRO); host or cells: human liver microsomes
# T3 sequence (P11712 whole entry): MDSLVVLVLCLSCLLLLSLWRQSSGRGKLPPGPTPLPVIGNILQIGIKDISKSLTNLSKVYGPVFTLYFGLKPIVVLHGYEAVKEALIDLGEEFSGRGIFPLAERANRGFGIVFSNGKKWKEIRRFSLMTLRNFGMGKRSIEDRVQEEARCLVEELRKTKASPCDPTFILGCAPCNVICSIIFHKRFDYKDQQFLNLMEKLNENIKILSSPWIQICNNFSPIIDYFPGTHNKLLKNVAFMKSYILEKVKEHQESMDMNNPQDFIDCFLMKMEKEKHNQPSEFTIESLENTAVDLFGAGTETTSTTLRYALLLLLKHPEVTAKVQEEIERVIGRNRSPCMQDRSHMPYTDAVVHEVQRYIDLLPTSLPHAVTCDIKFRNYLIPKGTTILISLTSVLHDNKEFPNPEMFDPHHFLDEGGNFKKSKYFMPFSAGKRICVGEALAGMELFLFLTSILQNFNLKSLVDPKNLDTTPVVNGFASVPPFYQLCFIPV
# Procedure: (§1) The five main cytochrome P450 isoforms (CYP1A, CYP2C9, CYP2C19, CYP2D6 and CYP3A4) were investigated in the P450 inhibition assay. […] At the end of the incubation, the formation of the metabolite was monitored by LC-MS/MS (or fluorescence in the case of CYP1A) at each of the test compound concentrations.
# [8] = target: T4, Cyp 450 2C19 (Homo sapiens, UniProt P33261); experiment: as above; assay type: in vitro ADME; conditions: human liver microsomes
# T4 construct: tissue Cyprotex (CRO); host or cells: human liver microsomes
# T4 sequence (P33261 whole entry): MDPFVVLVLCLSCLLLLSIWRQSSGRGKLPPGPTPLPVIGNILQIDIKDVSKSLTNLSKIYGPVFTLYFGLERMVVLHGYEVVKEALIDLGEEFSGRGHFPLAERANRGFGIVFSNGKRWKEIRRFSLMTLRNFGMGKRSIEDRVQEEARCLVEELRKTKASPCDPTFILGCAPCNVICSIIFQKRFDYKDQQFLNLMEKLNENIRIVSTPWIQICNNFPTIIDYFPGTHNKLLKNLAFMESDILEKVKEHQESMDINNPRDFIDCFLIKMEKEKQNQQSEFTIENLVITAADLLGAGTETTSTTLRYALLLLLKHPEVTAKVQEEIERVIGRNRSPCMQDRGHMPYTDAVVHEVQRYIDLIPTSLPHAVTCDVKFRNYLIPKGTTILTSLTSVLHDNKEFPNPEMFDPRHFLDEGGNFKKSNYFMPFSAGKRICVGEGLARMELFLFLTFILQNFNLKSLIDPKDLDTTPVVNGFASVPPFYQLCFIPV
# Procedure: as §1
# [9] = target: T5, Cyp 450 2D6 (Homo sapiens, UniProt P10635); experiment: as above; assay type: in vitro ADME; conditions: human liver microsomes
# T5 construct: tissue Cyprotex (CRO); host or cells: human liver microsomes
# T5 sequence (P10635 whole entry): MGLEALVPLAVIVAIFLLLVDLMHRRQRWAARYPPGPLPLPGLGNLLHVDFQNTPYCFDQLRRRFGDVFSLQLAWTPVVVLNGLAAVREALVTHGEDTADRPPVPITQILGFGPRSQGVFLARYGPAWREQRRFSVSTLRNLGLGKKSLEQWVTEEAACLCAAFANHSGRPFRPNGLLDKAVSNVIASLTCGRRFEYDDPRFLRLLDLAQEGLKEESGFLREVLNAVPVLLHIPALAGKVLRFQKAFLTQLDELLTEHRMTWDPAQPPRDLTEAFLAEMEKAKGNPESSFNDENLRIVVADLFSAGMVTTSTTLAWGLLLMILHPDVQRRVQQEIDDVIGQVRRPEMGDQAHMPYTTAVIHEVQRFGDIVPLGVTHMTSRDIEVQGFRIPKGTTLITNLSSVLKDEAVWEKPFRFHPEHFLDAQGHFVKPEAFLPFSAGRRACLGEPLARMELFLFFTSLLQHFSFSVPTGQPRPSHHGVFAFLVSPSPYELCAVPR
# Procedure: as §1
# [10] = target: T6, Cyp 450 3A4 (Homo sapiens, UniProt P08684); experiment: as above; assay type: in vitro ADME; conditions: human liver microsomes
# T6 construct: tissue Cyprotex (CRO); host or cells: human liver microsomes
# T6 sequence (P08684 whole entry): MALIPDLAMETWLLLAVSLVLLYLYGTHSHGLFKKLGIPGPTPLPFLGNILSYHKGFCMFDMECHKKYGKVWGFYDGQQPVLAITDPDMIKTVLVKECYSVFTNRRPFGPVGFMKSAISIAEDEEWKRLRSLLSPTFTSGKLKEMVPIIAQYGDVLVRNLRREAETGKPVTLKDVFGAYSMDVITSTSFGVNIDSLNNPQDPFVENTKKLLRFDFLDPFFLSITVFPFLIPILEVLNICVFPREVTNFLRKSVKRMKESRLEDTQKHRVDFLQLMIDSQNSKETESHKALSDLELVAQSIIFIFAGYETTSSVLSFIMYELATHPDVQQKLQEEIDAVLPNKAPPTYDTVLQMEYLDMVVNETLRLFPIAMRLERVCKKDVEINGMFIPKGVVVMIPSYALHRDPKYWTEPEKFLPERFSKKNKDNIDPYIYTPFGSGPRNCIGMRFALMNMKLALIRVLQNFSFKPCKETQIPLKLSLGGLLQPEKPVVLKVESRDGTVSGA
# Procedure: as §1
# [11] = target: T7, Cyp 450 1A2 (Homo sapiens, UniProt P05177); experiment: as above; assay type: in vitro ADME; conditions: human liver microsomes
# T7 construct: tissue Cyprotex (CRO); host or cells: human liver microsomes
# T7 sequence (P05177 1-516): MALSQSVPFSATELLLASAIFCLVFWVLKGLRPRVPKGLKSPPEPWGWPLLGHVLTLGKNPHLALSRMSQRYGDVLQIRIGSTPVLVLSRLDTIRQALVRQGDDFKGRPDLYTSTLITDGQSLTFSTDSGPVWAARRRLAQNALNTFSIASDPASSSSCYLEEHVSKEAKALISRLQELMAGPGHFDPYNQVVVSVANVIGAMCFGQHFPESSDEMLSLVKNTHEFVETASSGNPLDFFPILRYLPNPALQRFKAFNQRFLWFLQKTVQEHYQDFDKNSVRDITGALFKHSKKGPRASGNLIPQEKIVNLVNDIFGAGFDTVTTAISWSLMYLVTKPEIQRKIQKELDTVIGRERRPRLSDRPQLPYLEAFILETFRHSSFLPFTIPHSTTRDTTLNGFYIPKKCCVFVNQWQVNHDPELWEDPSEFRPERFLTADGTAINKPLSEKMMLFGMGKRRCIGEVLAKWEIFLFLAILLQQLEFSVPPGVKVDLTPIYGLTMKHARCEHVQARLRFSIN
# Procedure: as §1
# T1 sequence (Q12809 whole entry): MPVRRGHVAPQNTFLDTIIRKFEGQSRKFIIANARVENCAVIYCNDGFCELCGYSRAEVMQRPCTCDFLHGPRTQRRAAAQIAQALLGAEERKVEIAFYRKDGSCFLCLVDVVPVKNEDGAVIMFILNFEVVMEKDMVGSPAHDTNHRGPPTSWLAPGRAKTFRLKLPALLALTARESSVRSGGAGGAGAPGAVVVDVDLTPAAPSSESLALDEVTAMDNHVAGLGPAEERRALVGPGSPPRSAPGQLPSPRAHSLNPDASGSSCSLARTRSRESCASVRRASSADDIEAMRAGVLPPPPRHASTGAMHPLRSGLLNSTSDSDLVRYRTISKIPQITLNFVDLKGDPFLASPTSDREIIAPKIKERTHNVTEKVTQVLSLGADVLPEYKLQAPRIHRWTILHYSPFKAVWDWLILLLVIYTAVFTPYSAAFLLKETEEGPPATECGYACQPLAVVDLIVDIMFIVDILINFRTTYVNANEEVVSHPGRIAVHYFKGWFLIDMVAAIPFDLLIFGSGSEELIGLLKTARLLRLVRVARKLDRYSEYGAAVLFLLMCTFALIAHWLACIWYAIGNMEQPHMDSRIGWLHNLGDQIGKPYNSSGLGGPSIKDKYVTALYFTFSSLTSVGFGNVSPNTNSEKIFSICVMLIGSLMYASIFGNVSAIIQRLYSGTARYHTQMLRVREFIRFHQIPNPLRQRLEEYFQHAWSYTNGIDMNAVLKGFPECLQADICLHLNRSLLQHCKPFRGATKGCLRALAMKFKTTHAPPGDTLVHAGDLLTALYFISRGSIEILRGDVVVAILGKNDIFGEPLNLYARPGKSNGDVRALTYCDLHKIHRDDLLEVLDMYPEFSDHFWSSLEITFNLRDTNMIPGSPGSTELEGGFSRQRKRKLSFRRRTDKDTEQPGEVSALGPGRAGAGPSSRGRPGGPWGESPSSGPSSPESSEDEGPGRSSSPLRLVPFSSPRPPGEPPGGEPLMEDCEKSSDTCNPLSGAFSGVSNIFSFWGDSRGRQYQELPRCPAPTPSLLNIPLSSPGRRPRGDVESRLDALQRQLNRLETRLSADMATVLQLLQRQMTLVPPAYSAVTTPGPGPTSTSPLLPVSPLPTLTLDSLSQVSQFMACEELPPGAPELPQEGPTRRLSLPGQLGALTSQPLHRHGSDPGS
smiles,measurement,setting,value
"CCOc1c(Cl)cc(C(=O)Nc2ccc(C(=O)O)c(C)c2)cc1OC(C)C [Compound 56, 4-(3-Chloro-4-ethoxy-5-isopropoxybenzamido)-2-methylbenzoic acid]",binding to hERG,[1],did not show any significant binding; also recorded: no inhibition
same,"interactions with panel of 120 receptors, channels and enzymes",[2],no significant interactions
same,"inhibition (or stimulation), all panel targets",[2]; two independent experiments,≤ 25%
same,effect on cell or mitochondrial viability markers,[3],no effect
same,fraction unbound,[4]; human,0.07
same,fraction unbound,[4]; mouse,0.09
same,RARα agonist type (partial / full agonist),[5],full agonist
same,cytotoxicity in COS-7 cells,[6],no cytotoxicity; also recorded: not cytotoxic
same,IC50,[7],> 25 µM
same,IC50,[8],> 25 µM
same,IC50,[9],> 25 µM
same,IC50,[10],> 25 µM
same,IC50,[11],> 25 µM

# Reference: article PMC5823845 (Bioorganic & Medicinal Chemistry, 2018)
